Measured values: patent US7906486B2, “Method of treating or preventing tissue deterioration, injury or damage due to disease of mucosa” (SciClone Pharmaceuticals, Inc., priority 2007, dated 2011)
Values joined by “and” are separate entries in the source; they are usually repeats but may differ in a detail not shown here. Equal entries are not always repeated.

Tests used:
[1] = Weights and survival (Example 4, SCI-04); format: in vivo, Syrian Golden Hamsters; design: Animal weight: unit not given here; conditions: for Animal weight: Group 2 (SCV-07 10 μg/kg, day −1 to day 20), individual animals
Experimental: All animals were weighed daily and their survival recorded, in order to assess possible differences in animal weight among treatment groups as an indication for mucositis severity and/or possible toxicity resulting from the treatments.
There were no significant differences in weight changes between study groups. The mean daily percent weight change data was evaluated. The saline treated control hamsters gained an average of 46.5% of their starting weight during the study. Hamsters in the group receiving SCV-07 at 10 μg/kg on days −1 to 20 gained an average of 51.3% of their starting weight during the study. Hamsters in the group receiving SCV-07 at 100 μg/kg on days −1 to 20 gained an average of 46.7% of their starting weight during the study. Hamsters in the group receiving SCV-07 at 1 mg/kg from day −1 to day 20 gained an average of 48.8% of their starting weight during the study. The significance of these differences was evaluated by calculating the area-under-the-curve (AUC) for the weight gain of each animal, and then comparing the different treatment groups using a One-Way ANOVA test.

[2] = test system: oral mucositis induced by cis-platin 5 mg/kg and radiation 35 Gy (left cheek pouch); assay: Oral mucositis induced by a combination of cisplatin and acute radiation in hamsters, mucositis scoring (Example 4, SCI-04); format: in vivo, Syrian Golden Hamsters; design: key: 0: Pouch completely healthy. No erythema or vasodilation.; 1: Light to severe erythema and vasodilation. No erosion of mucosa.; 2: Severe erythema and vasodilation. Erosion of superficial aspects of mucosa leaving denuded areas. Decreased stippling of mucosa.; 3: Formation of off-white ulcers in one or more places. Ulcers may have a yellow/gray due to pseudomembrane. Cumulative size of ulcers should equal about ¼ of the pouch. Severe erythema and vasodilation.; 4: Cumulative seize of ulcers should equal about ½ of the pouch. Loss of pliability. Severe erythema and vasodilation.; 5: Virtually all of pouch is ulcerated. Loss of pliability (pouch can only partially be extracted from mouth); conditions: Group 2 (SCV-07 10 μg/kg, day -1 to day 20), individual animal scores, two scores per animal
Experimental: Forty Golden Syrian hamsters were prospectively randomized into four equally sized groups. Mucositis was induced on the left cheek pouch mucosa of golden Syrian hamsters by a single dose of cis-platin at 5 mg/kg given on day −1, and a single dose of radiation administered on day 0 at a dose of 35Gy. Beginning on day −1 and continuing once daily until day 20, SCV-07 was given by sub-cutaneous injection at doses of 10 μg/kg, 100 μg/kg or 1 mg/kg in a volume of 100 μL. Animals' activity and weight were evaluated daily. Beginning on day 6 and continuing on alternate days for the duration of the study, oral mucositis was evaluated using a standard scoring six point scale. The number of days of ulcerative mucositis was evaluated using a Chi-squared test of scores of ≧3 throughout the study, and the individual daily group scores were assessed with a Rank Sum Test.
The chemo-radiation model of oral mucositis in hamsters, developed by the Principal Investigator, has proven to be an accurate, efficient and cost-effective technique to provide a preliminary evaluation of anti-mucositis compounds. In this model, hamsters received a single dose of cis-platin at 5 mg/kg on day −1, followed by a single dose of radiation of 35 Gy to the left cheek pouch on day 0, rather than the single dose of 40 Gy on day 0 that is used in acute radiation studies. The course of mucositis in this model is very similar to the acute radiation model and results in peak mucositis scores approximately 16-18 days following radiation.
Hamsters received a single dose of cis-platin at 5 mg/kg on day −1 by intra-peritoneal injection, followed by a single dose of radiation of 35 Gy to the left cheek pouch on day 0. This was accomplished by anesthetizing the animals and everting the left buccal pouch, while protecting the rest of the animal's bodies with a lead shield. Test materials were given by sub-cutaneous injection once daily as detailed in Table 13. Mucositis was evaluated clinically starting on day 6, and continuing on alternate days until day 28. Test articles were given as from day −1 to day 20.
The grade of mucositis was scored, beginning day 6, and for every second day thereafter, through and including day 28. The effect on mucositis of each drug treatment compared to placebo was assessed according to the following parameters:
On each evaluation day, the number of animals with a blinded mucositis score of ≧3 in each drug treatment group was compared to the control group. Differences were compared on a cumulative basis and statistical significance was determined by chi-square analysis. Efficacy, in this analysis, is defined by a significant reduction in the number of days that a group of animals had ulcerations (scores 3) when compared to the control group.
For each evaluation day the scores of the control group were compared to those of the treated groups using non-parametric rank sum analysis. Treatment success was considered as a statistically significant lowering of scores in the treated group on 2 or more days from day 6 to day 28.
Forty (40) male Syrian Golden Hamsters were given an intraperitoneal injection of 5 mg/kg Cisplatin on day −1. On day 0 all animals were given an acute radiation dose of 35 Gy directed to their left buccal cheek pouch. This was accomplished by anesthetizing the animals and everting the left buccal pouch, while protecting the rest of the animals with a lead shield. Test materials were given by subcutaneous injection once daily as detailed in Table 13. Mucositis was evaluated clinically starting on Day 6, and continued on alternate days until day 28.
In this study, mucositis was induced with a combination of Cis-platin and radiation. Cis-platin was given as a single injection (IP) of 5 mg/kg on day −1. Radiation was given as a single focal dose of 35 Gy on day 0. Radiation was generated with a Philips 160 kVp (kilovolt potential) (18.75-ma) X-ray source at a focal distance of 30 cm, with a 3.0 mm hardened Al filtration system. […]

N[C@H](CCC(=O)N[C@@H](Cc1c[nH]c2ccccc12)C(=O)O)C(=O)O [SCV-07, γ-D-glutamyl-L-tryptophan]
average weight gain, % of starting weight during the study ([1]; 10 ug/kg on days -1 to 20): 51.3%
average weight gain, % of starting weight during the study ([1]; 100 ug/kg on days -1 to 20): 46.7%
average weight gain, % of starting weight during the study ([1]; 1 mg/kg from day -1 to day 20): 48.8%
Animal weight ([1]; day 0): 77 (2×) and 102 and 84 and 80 and 94
Animal weight ([1]; day 1): 74 and 101 and 83 and 80 and 76 and 91
Animal weight ([1]; day 2): 78 and 104 and 89 and 86 and 77 and 94
Animal weight ([1]; day 3): 82 and 111 and 93 and 88 and 79 and 98
Animal weight ([1]; day 4): 83 and 113 and 95 and 90 and 82 and 101
Animal weight ([1]; day 5): 86 and 112 and 98 and 93 and 83 and 103
Animal weight ([1]; day 6): 88 and 114 and 101 and 96 and 84 and 106
Animal weight ([1]; day 7): 90 and 117 and 103 and 98 and 86 and 108 and 80
Animal weight ([1]; day 8): 92 and 121 and 106 and 101 and 88 and 109 and 83
Animal weight ([1]; day 9): 94 and 122 and 106 and 102 and 91 and 108 and 83
Animal weight ([1]; day 10): 96 and 125 and 112 and 105 and 90 and 109 and 85
Animal weight ([1]; day 11): 98 and 125 and 111 and 105 and 92 and 109
Animal weight ([1]; day 12): 98 and 128 and 111 and 107 and 91 and 109
Animal weight ([1]; day 13): 98 and 128 and 112 and 108 (2×) and 90
Animal weight ([1]; day 14): 99 and 130 and 115 and 109 and 91 and 111
Animal weight ([1]; day −1): 77 and 101 and 85 and 82 and 76 and 94
Mucositis score, day 10 ([2]; day 10): 1
Mucositis score, day 12 ([2]; day 12): 3
Mucositis score, day 14 ([2]; day 14): 3
Mucositis score, day 16 ([2]; day 16): 3 (14×) and 4 (2×)
Mucositis score, day 18 ([2]; day 18): 3 (12×) and 4 (2×)
Mucositis score, day 20 ([2]; day 20): 3 (12×) and 1
Mucositis score, day 22 ([2]; day 22): 1 (4×) and 3 (8×)
Mucositis score, day 24 ([2]; day 24): 1 (5×) and 3 (4×)
Mucositis score, day 26 ([2]; day 26): 1 (11×) and 3 (4×)
Mucositis score, day 28 ([2]; day 28): 0 (7×) and 1 (8×) and 3 (2×)
